Results from the NIST ThermoML archive (doi:10.1016/j.jct.2012.08.014).
± gives the expanded uncertainty stated by the source.

Conditions: Liquid, Vibrating tube method

CCC(O)CO (stereo not drawn) [1,2-butanediol]
mass density [kg/m3]
Conditions | 278.15 K | 288.15 K | 298.15 K | 308.15 K | 318.15 K | 328.15 K | 338.15 K | 348.15 K | 358.15 K
100 kPa | 1013.4 ± 2.4 | 1006.2 ± 2.4 | 998.7 ± 2.4 | 991.1 ± 2.4 | 983.4 ± 2.4 | 975.7 ± 2.4 | 967.8 ± 2.4 | 959.7 ± 2.4 | 951.3 ± 2.4
1000 kPa | 1013.7 ± 2.4 | 1006.5 ± 2.4 | 999.1 ± 2.4 | 991.5 ± 2.4 | 983.8 ± 2.4 | 976.2 ± 2.4 | 968.3 ± 2.4 | 960.2 ± 2.4 | 952 ± 2.4
5000 kPa | 1015.7 ± 2.4 | 1008.6 ± 2.4 | 1001.2 ± 2.4 | 993.7 ± 2.4 | 986.1 ± 2.4 | 978.6 ± 2.4 | 970.7 ± 2.4 | 962.8 ± 2.4 | 954.6 ± 2.4
10000 kPa | 1018.1 ± 2.4 | 1011.1 ± 2.4 | 1003.8 ± 2.4 | 996.5 ± 2.4 | 988.9 ± 2.4 | 981.5 ± 2.4 | 973.9 ± 2.4 | 966.2 ± 2.4 | 958.1 ± 2.4
15000 kPa | 1020.5 ± 2.4 | 1013.5 ± 2.4 | 1006.3 ± 2.4 | 999.1 ± 2.4 | 991.7 ± 2.4 | 984.4 ± 2.4 | 976.8 ± 2.4 | 969.2 ± 2.4 | 961.4 ± 2.4
20000 kPa | 1022.8 ± 2.4 | 1015.9 ± 2.4 | 1008.8 ± 2.4 | 1001.6 ± 2.4 | 994.3 ± 2.4 | 987.2 ± 2.4 | 979.8 ± 2.4 | 972.2 ± 2.4 | 964.5 ± 2.4
25000 kPa | 1025 ± 2.4 | 1018.2 ± 2.4 | 1011.3 ± 2.4 | 1004.1 ± 2.4 | 997 ± 2.4 | 989.9 ± 2.4 | 982.6 ± 2.4 | 975.2 ± 2.4 | 967.5 ± 2.4
30000 kPa | 1027.2 ± 2.4 | 1020.5 ± 2.4 | 1013.6 ± 2.4 | 1006.5 ± 2.4 | 999.4 ± 2.4 | 992.5 ± 2.4 | 985.3 ± 2.4 | 978 ± 2.4 | 970.5 ± 2.4
35000 kPa | 1029.2 ± 2.4 | 1022.7 ± 2.4 | 1015.9 ± 2.4 | 1008.9 ± 2.4 | 1001.9 ± 2.4 | 995.1 ± 2.4 | 987.9 ± 2.4 | 980.7 ± 2.4 | 973.5 ± 2.4
40000 kPa | 1031.2 ± 2.4 | 1024.7 ± 2.4 | 1018.2 ± 2.4 | 1011.2 ± 2.4 | 1004.4 ± 2.4 | 997.6 ± 2.4 | 990.5 ± 2.4 | 983.4 ± 2.4 | 976.2 ± 2.4
45000 kPa | 1033.3 ± 2.4 | 1026.7 ± 2.4 | 1020.3 ± 2.4 | 1013.5 ± 2.4 | 1006.7 ± 2.4 | 999.9 ± 2.4 | 993.1 ± 2.4 | 986.1 ± 2.4 | 978.8 ± 2.4
50000 kPa | 1035.3 ± 2.4 | 1028.8 ± 2.4 | 1022.5 ± 2.4 | 1015.7 ± 2.4 | 1009 ± 2.4 | 1002.2 ± 2.4 | 995.5 ± 2.4 | 988.6 ± 2.4 | 981.4 ± 2.4
55000 kPa | 1037.3 ± 2.4 | 1030.8 ± 2.4 | 1024.5 ± 2.4 | 1017.9 ± 2.4 | 1011.3 ± 2.4 | 1004.7 ± 2.4 | 997.9 ± 2.4 | 991.1 ± 2.4 | 984 ± 2.4
60000 kPa | 1039.2 ± 2.4 | 1033 ± 2.4 | 1026.7 ± 2.4 | 1020 ± 2.4 | 1013.5 ± 2.4 | 1006.9 ± 2.4 | 1000.3 ± 2.4 | 993.4 ± 2.4 | 986.5 ± 2.4

CC(O)CO (stereo not drawn) [1,2-propanediol]
mass density [kg/m3]
Conditions | 278.15 K | 288.15 K | 298.15 K | 308.15 K | 318.15 K | 328.15 K | 338.15 K | 348.15 K | 358.15 K
100 kPa | 1047.1 ± 2.4 | 1039.9 ± 2.4 | 1032.5 ± 2.4 | 1025.3 ± 2.4 | 1017.7 ± 2.4 | 1010 ± 2.4 | 1002.2 ± 2.4 | 994.1 ± 2.4 | 985.8 ± 2.4
1000 kPa | 1047.3 ± 2.4 | 1040.2 ± 2.4 | 1032.9 ± 2.4 | 1025.5 ± 2.4 | 1018 ± 2.4 | 1010.3 ± 2.4 | 1002.4 ± 2.4 | 994.5 ± 2.4 | 986.2 ± 2.4
5000 kPa | 1049.2 ± 2.4 | 1042.1 ± 2.4 | 1034.8 ± 2.4 | 1027.5 ± 2.4 | 1020.2 ± 2.4 | 1012.7 ± 2.4 | 1004.8 ± 2.4 | 996.9 ± 2.4 | 988.8 ± 2.4
10000 kPa | 1051.2 ± 2.4 | 1044.4 ± 2.4 | 1037.2 ± 2.4 | 1030.1 ± 2.4 | 1022.8 ± 2.4 | 1015.4 ± 2.4 | 1007.6 ± 2.4 | 999.9 ± 2.4 | 991.9 ± 2.4
15000 kPa | 1053.4 ± 2.4 | 1046.7 ± 2.4 | 1039.6 ± 2.4 | 1032.5 ± 2.4 | 1025.4 ± 2.4 | 1018 ± 2.4 | 1010.4 ± 2.4 | 1002.8 ± 2.4 | 995 ± 2.4
20000 kPa | 1055.5 ± 2.4 | 1048.9 ± 2.4 | 1041.9 ± 2.4 | 1034.9 ± 2.4 | 1027.9 ± 2.4 | 1020.6 ± 2.4 | 1013 ± 2.4 | 1005.5 ± 2.4 | 997.8 ± 2.4
25000 kPa | 1057.6 ± 2.4 | 1051.1 ± 2.4 | 1044.1 ± 2.4 | 1037.2 ± 2.4 | 1030.3 ± 2.4 | 1023.1 ± 2.4 | 1015.6 ± 2.4 | 1008.2 ± 2.4 | 1000.6 ± 2.4
30000 kPa | 1059.6 ± 2.4 | 1053.2 ± 2.4 | 1046.3 ± 2.4 | 1039.5 ± 2.4 | 1032.7 ± 2.4 | 1025.6 ± 2.4 | 1018.2 ± 2.4 | 1010.9 ± 2.4 | 1003.4 ± 2.4
35000 kPa | 1061.6 ± 2.4 | 1055.4 ± 2.4 | 1048.4 ± 2.4 | 1041.6 ± 2.4 | 1035 ± 2.4 | 1027.9 ± 2.4 | 1020.7 ± 2.4 | 1013.4 ± 2.4 | 1006 ± 2.4
40000 kPa | 1063.6 ± 2.4 | 1057.4 ± 2.4 | 1050.6 ± 2.4 | 1043.8 ± 2.4 | 1037.2 ± 2.4 | 1030.3 ± 2.4 | 1023.2 ± 2.4 | 1016 ± 2.4 | 1008.5 ± 2.4
45000 kPa | 1065.6 ± 2.4 | 1059.4 ± 2.4 | 1052.5 ± 2.4 | 1046 ± 2.4 | 1039.4 ± 2.4 | 1032.5 ± 2.4 | 1025.5 ± 2.4 | 1018.4 ± 2.4 | 1011.2 ± 2.4
50000 kPa | 1067.5 ± 2.4 | 1061.4 ± 2.4 | 1054.6 ± 2.4 | 1048.1 ± 2.4 | 1041.5 ± 2.4 | 1034.7 ± 2.4 | 1027.9 ± 2.4 | 1020.9 ± 2.4 | 1013.6 ± 2.4
55000 kPa | 1069.3 ± 2.4 | 1063.4 ± 2.4 | 1056.6 ± 2.4 | 1050.1 ± 2.4 | 1043.6 ± 2.4 | 1036.9 ± 2.4 | 1030.2 ± 2.4 | 1023.2 ± 2.4 | 1016.1 ± 2.4
60000 kPa | 1071.4 ± 2.4 | 1065.3 ± 2.4 | 1058.5 ± 2.4 | 1052.2 ± 2.4 | 1045.7 ± 2.4 | 1039 ± 2.4 | 1032.4 ± 2.4 | 1025.6 ± 2.4 | 1018.5 ± 2.4

OCCO [1,2-ethanediol]
mass density [kg/m3]
Conditions | 278.15 K | 288.15 K | 298.15 K | 308.15 K | 318.15 K | 328.15 K | 338.15 K | 348.15 K | 358.15 K
100 kPa | 1122.4 ± 2.4 | 1115.8 ± 2.4 | 1109 ± 2.4 | 1102.2 ± 2.4 | 1095.2 ± 2.4 | 1088.2 ± 2.4 | 1080.9 ± 2.4 | 1073.6 ± 2.4 | 1066.1 ± 2.4
1000 kPa | 1122.6 ± 2.4 | 1116 ± 2.4 | 1109.2 ± 2.4 | 1102.4 ± 2.4 | 1095.4 ± 2.4 | 1088.3 ± 2.4 | 1081.2 ± 2.4 | 1073.9 ± 2.4 | 1066.2 ± 2.4
5000 kPa | 1124.1 ± 2.4 | 1117.6 ± 2.4 | 1110.9 ± 2.4 | 1104.1 ± 2.4 | 1097.1 ± 2.4 | 1090.2 ± 2.4 | 1083.1 ± 2.4 | 1075.8 ± 2.4 | 1068.2 ± 2.4
10000 kPa | 1126 ± 2.4 | 1119.5 ± 2.4 | 1112.9 ± 2.4 | 1106.1 ± 2.4 | 1099.2 ± 2.4 | 1092.3 ± 2.4 | 1085.4 ± 2.4 | 1078.1 ± 2.4 | 1070.7 ± 2.4
15000 kPa | 1127.8 ± 2.4 | 1121.5 ± 2.4 | 1114.9 ± 2.4 | 1108.2 ± 2.4 | 1101.3 ± 2.4 | 1094.4 ± 2.4 | 1087.6 ± 2.4 | 1080.4 ± 2.4 | 1073.1 ± 2.4
20000 kPa | 1129.6 ± 2.4 | 1123.3 ± 2.4 | – | – | – | – | 1089.8 ± 2.4 | 1082.7 ± 2.4 | 1075.4 ± 2.4
25000 kPa | 1131.4 ± 2.4 | 1125.2 ± 2.4 | 1118.7 ± 2.4 | 1112.1 ± 2.4 | 1105.3 ± 2.4 | 1098.6 ± 2.4 | 1091.9 ± 2.4 | 1084.9 ± 2.4 | 1077.8 ± 2.4
30000 kPa | 1133.1 ± 2.4 | 1127 ± 2.4 | 1120.6 ± 2.4 | 1114 ± 2.4 | 1107.3 ± 2.4 | 1100.6 ± 2.4 | 1094 ± 2.4 | 1087 ± 2.4 | 1079.9 ± 2.4
35000 kPa | 1134.8 ± 2.4 | 1128.8 ± 2.4 | 1122.4 ± 2.4 | 1115.9 ± 2.4 | 1109.3 ± 2.4 | – | – | – | 1082.1 ± 2.4
40000 kPa | 1136.6 ± 2.4 | 1130.6 ± 2.4 | 1124.3 ± 2.4 | 1117.7 ± 2.4 | 1111.2 ± 2.4 | 1104.6 ± 2.4 | 1097.9 ± 2.4 | 1091.3 ± 2.4 | 1084.3 ± 2.4
45000 kPa | 1138.2 ± 2.4 | 1132.3 ± 2.4 | 1126.1 ± 2.4 | 1119.6 ± 2.4 | 1113.1 ± 2.4 | 1106.5 ± 2.4 | 1099.9 ± 2.4 | 1093.4 ± 2.4 | 1086.5 ± 2.4
50000 kPa | 1139.9 ± 2.4 | 1134.1 ± 2.4 | 1127.8 ± 2.4 | 1121.4 ± 2.4 | 1115 ± 2.4 | 1108.4 ± 2.4 | 1101.9 ± 2.4 | 1095.3 ± 2.4 | –
55000 kPa | 1141.6 ± 2.4 | 1135.7 ± 2.4 | 1129.6 ± 2.4 | 1123.2 ± 2.4 | – | – | 1103.9 ± 2.4 | 1097.3 ± 2.4 | 1090.7 ± 2.4
60000 kPa | 1143.3 ± 2.4 | 1137.4 ± 2.4 | 1131.3 ± 2.4 | 1125 ± 2.4 | 1118.6 ± 2.4 | 1112.1 ± 2.4 | 1105.8 ± 2.4 | 1099.4 ± 2.4 | 1092.7 ± 2.4
